Results from PubChem BioAssay (NCI).
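Growth conditions: 96-well plates. Treatment: test compound, 48 hours, 5 concentrations. Analysis: linear interpolation between bracketing concentrations; unreached endpoints set to highest concentration. TGI denotes the concentration required for complete inhibition of growth.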

What was measured:
Experiment in all cases: NCI-60 cell line screen, 48 h
SW-620 colon = tested on: SW-620 colon
SF-539 CNS = tested on: SF-539 CNS
MALME-3M melanoma = tested on: MALME-3M melanoma
ACHN renal = tested on: ACHN renal
SF-295 CNS = tested on: SF-295 CNS
SNB-19 CNS = tested on: SNB-19 CNS
BT-549 breast = tested on: BT-549 breast
COLO 205 colon = tested on: COLO 205 colon
OVCAR-3 ovarian = tested on: OVCAR-3 ovarian
K-562 leukemia = tested on: K-562 leukemia
HCT-116 colon = tested on: HCT-116 colon
CAKI-1 renal = tested on: CAKI-1 renal
MDA-MB-231 breast = tested on: MDA-MB-231 breast
HL-60(TB) leukemia = tested on: HL-60(TB) leukemia
SR leukemia = tested on: SR leukemia
UACC-62 melanoma = tested on: UACC-62 melanoma
UACC-257 melanoma = tested on: UACC-257 melanoma
NCI-H23 lung = tested on: NCI-H23 lung
NCI-H522 lung = tested on: NCI-H522 lung
HS 578T breast = tested on: HS 578T breast
MOLT-4 leukemia = tested on: MOLT-4 leukemia
SF-268 CNS = tested on: SF-268 CNS
HT29 colon = tested on: HT29 colon
SK-MEL-28 melanoma = tested on: SK-MEL-28 melanoma
NCI-H226 lung = tested on: NCI-H226 lung
HOP-62 NSCLC = tested on: HOP-62 NSCLC
RXF 393 renal = tested on: RXF 393 renal
HOP-92 NSCLC = tested on: HOP-92 NSCLC
SK-OV-3 ovarian = tested on: SK-OV-3 ovarian
SK-MEL-2 melanoma = tested on: SK-MEL-2 melanoma
HCT-15 colon = tested on: HCT-15 colon
NCI-H460 lung = tested on: NCI-H460 lung
A549 NSCLC = tested on: A549 NSCLC
PC-3 prostate = tested on: PC-3 prostate
T-47D breast = tested on: T-47D breast
U251 CNS = tested on: U251 CNS
MDA-MB-435 = tested on: MDA-MB-435
UO-31 renal = tested on: UO-31 renal
IGROV1 ovarian = tested on: IGROV1 ovarian
DU-145 prostate = tested on: DU-145 prostate
MCF7 breast = tested on: MCF7 breast
M14 melanoma = tested on: M14 melanoma
NCI/ADR-RES ovarian = tested on: NCI/ADR-RES ovarian
LOX IMVI melanoma = tested on: LOX IMVI melanoma
OVCAR-5 ovarian = tested on: OVCAR-5 ovarian
KM12 colon = tested on: KM12 colon
SN12C renal = tested on: SN12C renal
TK-10 renal = tested on: TK-10 renal
OVCAR-8 ovarian = tested on: OVCAR-8 ovarian
OVCAR-4 ovarian = tested on: OVCAR-4 ovarian
SNB-75 CNS = tested on: SNB-75 CNS
786-0 renal = tested on: 786-0 renal
SK-MEL-5 melanoma = tested on: SK-MEL-5 melanoma
EKVX NSCLC = tested on: EKVX NSCLC

In the case of `COc1ccc(C2=C(Cl)C(=O)N(c3ccc(OC)cc3OC)C(=O)C2(Cl)Cl)cc1`, the TGI (SW-620 colon) is reported as 30.1 µM, the TGI (SF-539 CNS) is reported as 23.5 µM and the TGI (MALME-3M melanoma) is reported as 35.8 µM. For the same compound, the TGI (ACHN renal) was 29.1 µM, the TGI (SF-295 CNS) was 66.4 µM and the TGI (SNB-19 CNS) was > 100 µM. The TGI (BT-549 breast) was 77.3 µM, the TGI (COLO 205 colon) was 39.4 µM and the TGI (OVCAR-3 ovarian) was 25 µM. For the same compound, the TGI (K-562 leukemia) was > 100 µM, the TGI (HCT-116 colon) was 28.9 µM and the TGI (CAKI-1 renal) was 25.2 µM. The TGI (MDA-MB-231 breast) was 20.5 µM, the TGI (HL-60(TB) leukemia) was 69.8 µM and the TGI (SR leukemia) was 36.4 µM. It also gave a TGI (UACC-62 melanoma) of 28 µM, a TGI (UACC-257 melanoma) of 39.3 µM and a TGI (NCI-H23 lung) of 31 µM. It also gave a TGI (NCI-H522 lung) of 36.5 µM, a TGI (HS 578T breast) of 16.4 µM and a TGI (MOLT-4 leukemia) of 74 µM. It also gave a TGI (SF-268 CNS) of 65.9 µM, a TGI (HT29 colon) of 38.4 µM and a TGI (SK-MEL-28 melanoma) of 36.1 µM. It also gave a TGI (NCI-H226 lung) of 27.1 µM, a TGI (HOP-62 NSCLC) of 36.9 µM and a TGI (RXF 393 renal) of 57 µM. For the same compound, the TGI (HOP-92 NSCLC) was 36.6 µM, the TGI (SK-OV-3 ovarian) was > 100 µM and the TGI (SK-MEL-2 melanoma) was 63.6 µM. The TGI (HCT-15 colon) was 27.9 µM, the TGI (NCI-H460 lung) was > 100 µM and the TGI (A549 NSCLC) was > 100 µM. The TGI (PC-3 prostate) was 33.5 µM, the TGI (T-47D breast) was 30.3 µM and the TGI (U251 CNS) was 30.2 µM. For the same compound, the TGI (MDA-MB-435) was 34.4 µM, the TGI (UO-31 renal) was 37.4 µM and the TGI (IGROV1 ovarian) was 44.3 µM. It also gave a TGI (DU-145 prostate) of 31 µM, a TGI (MCF7 breast) of 64.7 µM and a TGI (M14 melanoma) of 29.7 µM. The TGI (NCI/ADR-RES ovarian) was 41.9 µM, the TGI (LOX IMVI melanoma) was 30.8 µM and the TGI (OVCAR-5 ovarian) was 27.6 µM. For the same compound, the TGI (KM12 colon) was 33.6 µM, the TGI (SN12C renal) was 13.8 µM and the TGI (TK-10 renal) was 37.7 µM. It also gave a TGI (OVCAR-8 ovarian) of 52.4 µM, a TGI (OVCAR-4 ovarian) of 32.2 µM and a TGI (SNB-75 CNS) of 90.3 µM. The TGI (786-0 renal) was 29 µM, the TGI (SK-MEL-5 melanoma) was 28.1 µM and the TGI (EKVX NSCLC) was 87.1 µM.
